Like-named read-outs stand apart in the source and are kept apart here.
Columns and labels:
[1] = biological target: recombinant human baculovirus-expressed cMET (Homo sapiens (Human), UniProt P08581); test: C-MET Kinase Assay (HTRF KinEASE); assay type: biochemical
Summary of the method: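 HTRF KinEASE format with recombinant human baculovirus-expressed cMET at 8 ng/mL, biotinylated peptide at 0.1 μM and ATP at 0.02 μM. IC50 came from percent control activity versus log concentration, fitted by nonlinear regression to a variable-slope sigmoidal equation with bottom fixed at 0 and top at 100.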

[2] = biological target: recombinant human baculovirus-expressed AXL (Homo sapiens (Human), UniProt P30530); test: AXL Kinase Assay (HTRF KinEASE); assay type: biochemical; conditions: average of two or more determinations
Method: The ability of compounds to inhibit the kinase activity of recombinant human baculovirus-expressed AXL was measured by homogeneous TRF (HTRF) using Cisbio's KinEASE™ assay system in white 384-well Optiplates. Assay buffer contained 1 mM DTT, 2 mM MnCl2, 2% DMSO, […] supplement enzymatic buffer, and 1× enzymatic buffer. A 2× concentration of tyrosine kinase (TK) substrate-biotin/ATP mixture made in assay buffer was added to plates at 10 μL/well using the Multidrop Combi (Thermo Fisher Scientific, Waltham, Mass.). […] Compounds (100 nL), diluted in 100% DMSO on the Biomek FX, (Beckman Coulter, Inc., Brea, Calif.), were transferred to the assay plates using the Biomek FX pintool (2.5% final DMSO in assay). […] Plates were sealed, briefly shaken and incubated at 25° C. for 30 minutes. […] Plates were sealed, briefly shaken and incubated at 25° C. for 1 hour.
Inhibition curves for compounds were generated by plotting percent control activity versus log 10 of the concentration of compound. IC50 values were calculated by nonlinear regression using the sigmoidal dose-response (variable slope) equation in GraphPad Prism as follows: y=bottom+(top−bottom)/(1+10(log IC50−x)*Hill Slope) where y is the % kinase activity at a given concentration of compound, x is the logarithm of the concentration of compound, bottom is the % of control kinase activity at the highest compound concentration tested, and top is the % of control kinase activity at the lowest compound concentration examined. The values for bottom and top were fixed at 0 and 100, respectively.

[3] = average of two or more determinations, read-out: c-MET IC50

SMILES	IC50 [1, 3] [nM]	IC50 [2] [nM]	IC50 [1] [nM]
COc1cc2nccc(C(O)c3ccc(NC(=O)c4cn(C)c(=O)n(-c5ccc(F)cc5)c4=O)cc3F)c2cc1OC (stereo not drawn) [Example 57, 3-(4-fluoro-phenyl)-1-methyl-2,4-dioxo-1,2,3,4-tetrahydro-pyrimidine-5-carboxylic acid {4-[(6,7-dimethoxy-quinolin-4-yl)-hydroxy-methyl]-3-fluoro-phenyl}-amide]	101 to 1000	< 10	
COc1cc2nccc(Oc3ccc(NC(=O)c4nn(C)c(=O)n(CC5CCOCC5)c4=O)cc3F)c2cc1OC [Example 126, 2-Methyl-3,5-dioxo-4-(tetrahydro-pyran-4-ylmethyl)-2,3,4,5-tetrahydro-[1,2,4]triazine-6-carboxylic acid [4-(6,7-dimethoxy-quinolin-4-yloxy)-3-fluoro-phenyl]-amide]	101 to 1000	< 10	
COc1cc2nccc(Oc3ccc(NC(=O)c4cn(C(C)C)c(=O)n(-c5ccc(F)cc5)c4=O)cc3F)c2cc1OC [Example 5, 3-(4-Fluorophenyl)-1-isopropyl-2,4-dioxo-1,2,3,4-tetrahydropyrimidine-5-carboxylic acid [4-(6,7-dimethoxyquinolin-4-yloxy)-3-fluorophenyl]-amide]		< 10	10 to 100
COc1cc2nccc(Oc3ccc(NC(=O)c4cn(CCN5CCCC5)c(=O)n(-c5ccc(F)cc5)c4=O)cc3F)c2cc1OC [Example 26, 3-(4-Fluorophenyl)-2,4-dioxo-1-(2-pyrrolidin-1-yl-ethyl)-1,2,3,4-tetrahydropyrimidine-5-carboxylic acid [4-(6,7-dimethoxyquinolin-4-yloxy)-3-fluorophenyl]-amide]	10 to 100	< 10	
COc1cc2nccc(Oc3ccc(NC(=O)c4nn(C(C)C)c(=O)n(-c5ccc(F)cc5)c4=O)nc3)c2cc1OC [Example 110, 4-(4-Fluoro-phenyl)-2-isopropyl-3,5-dioxo-2,3,4,5-tetrahydro-[1,2,4]triazine-6-carboxylic acid [5-(6,7-dimethoxy-quinolin-4-yloxy)-pyridin-2-yl]-amide]	10 to 100	< 10	
COc1ccc2c(Oc3ccc(NC(=O)c4nn(C(C)C)c(=O)n(-c5ccc(F)cc5)c4=O)cc3F)ccnc2c1 [Example 111, 4-(4-Fluorophenyl)-2-isopropyl-3,5-dioxo-2,3,4,5-tetrahydro-[1,2,4]triazine-6-carboxylic acid [3-fluoro-4-(7-methoxyquinolin-4-yloxy)-phenyl]-amide]	10 to 100	< 10	
COc1cc2nccc(Oc3ccc(NC(=O)c4n[nH]c(=O)n(-c5ccc(F)cc5)c4=O)cc3F)c2cc1OC [Example 107, 4-(4-Fluoro-phenyl)-3,5-dioxo-2,3,4,5-tetrahydro-[1,2,4]triazine-6-carboxylic acid [4-(6,7-dimethoxy-quinolin-4-yloxy)-3-fluoro-phenyl]-amide]	< 10	< 10	
CCC(C)Cn1c(=O)c(C(=O)Nc2ccc(Oc3ccnc4cc(OC)c(OC)cc34)c(F)c2)nn(C)c1=O (racemic) [Example 130, ±2-Methyl-4-(2-methyl-butyl)-3,5-dioxo-2,3,4,5-tetrahydro-[1,2,4]triazine-6-carboxylic acid [4-(6,7-dimethoxy-quinolin-4-yloxy)-3-fluoro-phenyl]-amide]	10 to 100	< 10	
COc1cc2nccc(Oc3ccc(NC(=O)c4cn(CC5CCOCC5)c(=O)n(-c5ccc(F)cc5)c4=O)cc3F)c2cc1OC [Example 74, 3-(4-Fluoro-phenyl)-2,4-dioxo-1-(tetrahydro-pyran-4-ylmethyl)-1,2,3,4-tetrahydro-pyrimidine-5-carboxylic acid [4-(6,7-dimethoxy-quinolin-4-yloxy)-3-fluoro-phenyl]-amide]	10 to 100	< 10	
COCCn1cc(C(=O)Nc2ccc(Oc3ccnc4cc(OC)c(OC)cc34)c(F)c2)c(=O)n(-c2ccc(F)cc2)c1=O [Example 3, 3-(4-Fluorophenyl)-1-(2-methoxyethyl)-2,4-dioxo-1,2,3,4-tetrahydropyrimidine-5-carboxylic acid [4-(6,7-dimethoxyquinolin-4-yloxy)-3-fluorophenyl]-amide]	10 to 100	< 10	
CCn1c(=O)c(C(=O)Nc2ccc(Oc3ccnc4cc(OC)c(OC)cc34)c(F)c2)cn(-c2ccc(F)cc2)c1=O [Example 91, 3-Ethyl-1-(4-fluoro-phenyl)-2,4-dioxo-1,2,3,4-tetrahydro-pyrimidine-5-carboxylic acid [4-(6,7-dimethoxy-quinolin-4-yloxy)-3-fluoro-phenyl]-amide]	10 to 100	< 10	

Further lines, with some results ahead:

IC50 [1, 3] [nM]	IC50 [2] [nM]	SMILES	IC50 [1] [nM]
10 to 100	< 10	COc1cc2nccc(Oc3ccc(NC(=O)c4cn(CCCO)c(=O)n(-c5ccc(F)cc5)c4=O)cc3)c2cc1OC [Example 52, 3-(4-Fluorophenyl)-1-(3-hydroxypropyl)-2,4-dioxo-1,2,3,4-tetrahydropyrimidine-5-carboxylic acid [4-(6,7-dimethoxyquinolin-4-yloxy)phenyl]-amide]	
10 to 100	< 10	CCn1cc(C(=O)Nc2ccc(Oc3ccnc4cc(OC)c(OC)cc34)c(F)c2)c(=O)n(-c2ccccc2)c1=O [Example 100, 1-Ethyl-2,4-dioxo-3-phenyl-1,2,3,4-tetrahydro-pyrimidine-5-carboxylic acid [4-(6,7-dimethoxy-quinolin-4-yloxy)-3-fluoro-phenyl]-amide]	
10 to 100	< 10	COc1cc2nccc(Oc3ccc(NC(=O)c4cn(Cc5ccccc5)c(=O)n(-c5ccc(F)cc5)c4=O)cc3F)c2cc1OC [Example 77, 1-Benzyl-3-(4-fluoro-phenyl)-2,4-dioxo-1,2,3,4-tetrahydro-pyrimidine-5-carboxylic acid [4-(6,7-dimethoxy-quinolin-4-yloxy)-3-fluoro-phenyl]-amide]	
10 to 100	< 10	COc1cc2nccc(Oc3ccc(NC(=O)c4cn(CC(=O)N5CCOCC5)c(=O)n(-c5ccc(F)cc5)c4=O)cc3F)c2cc1OC [Example 67, 3-(4-Fluoro-phenyl)-1-(2-morpholin-4-yl-2-oxo-ethyl)-2,4-dioxo-1,2,3,4-tetrahydro-pyrimidine-5-carboxylic acid [4-(6,7-dimethoxy-quinolin-4-yloxy)-3-fluoro-phenyl]-amide]	
10 to 100	< 10	COc1cc2nccc(Oc3ccc(NC(=O)c4nn(C)c(=O)n(CC5CCC5)c4=O)cc3F)c2cc1OC [Example 128, 4-Cyclobutylmethyl-2-methyl-3,5-dioxo-2,3,4,5-tetrahydro-[1,2,4]triazine-6-carboxylic acid [4-(6,7-dimethoxy-quinolin-4-yloxy)-3-fluoro-phenyl]-amide]	
10 to 100	< 10	COc1cc2nccc(Oc3ccc(NC(=O)c4cn(CCc5ccccc5)c(=O)n(-c5ccc(F)cc5)c4=O)cc3F)c2cc1OC [Example 64, 3-(4-Fluoro-phenyl)-2,4-dioxo-1-phenethyl-1,2,3,4-tetrahydro-pyrimidine-5-carboxylic acid [4-(6,7-dimethoxy-quinolin-4-yloxy)-3-fluoro-phenyl]-amide]	
10 to 100	< 10	Cn1cc(C(=O)Nc2ccc(Oc3ccnc4cc5c(cc34)OCO5)c(F)c2)c(=O)n(-c2ccc(F)cc2)c1=O [Example 131, 3-(4-Fluoro-phenyl)-1-methyl-2,4-dioxo-1,2,3,4-tetrahydro-pyrimidine-5-carboxylic acid [4-([1,3]dioxolo[4,5-g]quinolin-8-yloxy)-3-fluoro-phenyl]-amide]	
10 to 100	< 10	COc1cc(Oc2ccnc3cc(OC)c(OC)cc23)ccc1NC(=O)c1cn(C(C)C)c(=O)n(-c2ccc(F)cc2)c1=O [Example 145, 1-Isopropyl-3-(4-fluoro-phenyl)-2,4-dioxo-1,2,3,4-tetrahydro-pyrimidine-5-carboxylic acid [4-(6,7-dimethoxy-quinolin-4-yloxy)-2-methoxy-phenyl]-amide]	
< 10	< 10	COc1cc2nccc(Oc3ccc(NC(=O)c4c[nH]c(=O)n(-c5ccc(F)cc5)c4=O)c(F)c3)c2cc1OC [Example 85, 3-(4-Fluoro-phenyl)-2,4-dioxo-1,2,3,4-tetrahydro-pyrimidine-5-carboxylic acid [4-(6,7-dimethoxy-quinolin-4-yloxy)-2-fluoro-phenyl]-amide]	
< 10	< 10	COc1cc2nccc(Oc3ccc(NC(=O)c4c[nH]c(=O)n(-c5ccc(F)cc5)c4=O)cc3)c2cc1OC [Example 24, 3-(4-Fluorophenyl)-2,4-dioxo-1,2,3,4-tetrahydropyrimidine-5-carboxylic acid [4-(6,7-dimethoxyquinolin-4-yloxy)phenyl]-amide]	

Source: patent publication US9745283B2, “Uracil derivatives as AXL and c-MET kinase inhibitors” (priority 2011, dated 2017)
